Laboratory results: PMC6179248, “Peanut-specific T cell responses in patients with different clinical reactivity” (PLoS ONE, 2018)

Assays:
[1] = test system: PBMC from peanut allergic and non-allergic donors (IL-5 production); assay: IL-5 ELISPOT with individual peptides after 14-day in vitro expansion (epitope mapping); type: cell-based, human; settings: SFC per 10^6 PBMC, individual peptide 10 μg/ml, 24 h, after 14-day culture; for IL-5 Average SFC (allergics): allergic donors; for IL-5 Average SFC (controls): non-allergic controls
Protocol: (§1) For in vitro expansions, PBMCs were thawed and cultured in RPMI 1640 (Omega Scientific, Tarzana, CA) supplemented with 5% human AB serum (Gemini Bio-Products, West Sacramento, CA) at a density of 2 × 10^6 cells per mL in 24-well plates (Corning, San Diego, CA) and stimulated with peanut extract (10 μg/ml) or peptide pools at 5 μg/mL. Cells were kept at 37°C, 5% CO2, and additional IL-2 (10 U/mL; ThermoFisher, San Diego, CA) was added every 3 days after initial antigenic stimulation. On day 14, cells were harvested and reactivity against peanut extract (10 μg/ml), peanut specific peptide pools (5 μg/ml) and individual peptides (10 μg/ml) was assessed. The production of IL-5 and IFNγ post-stimulation with peanut extract was analyzed in dual ELISPOT assays. Flat-bottom 96-well nitrocellulose plates (Millipore, Bedford, MA) were prepared according to the manufacturer’s instructions and coated with either 10 μg/ml of both anti-human IL-5 (clone TRFK5) and anti-human IFNγ (clone 1-D1K) or anti-human IL-10 (clone 9D7) and anti-human IL-17 (clone MT44.6) (Mabtech, Cincinnati, OH). PBMC were then incubated at a density of 1 × 10^5/well either with peptide pools (5 μg/ml) or individual peptides (10 μg/ml), peanut extract (10 μg/ml), PHA (10 μg/ml), or medium containing 0.25% DMSO (corresponding to the highest percentage of DMSO in the pools/peptides condition) as a control. After 24 h, cells were removed, and plates were incubated with a cocktail containing either biotinylated anti-human IL-5 (1:50 dilution) (clone 5A10) and horseradish peroxidase (HRP)-conjugated anti-human IFNγ (1:200 dilution) (clone 7-B6-1) or biotinylated anti-human IL-17 (1:200 dilution) (clone MT504) anti-human alkaline phosphatase (AP)-conjugated IL-10 (1:200 dilution) (clone 12G8) (Mabtech, Cincinnati, OH) at 37°C. After 2 h, spots corresponding to the biotinylated IL-5 Ab were developed by incubation with Alkaline-phosphatase-Complex (Vector Laboratories, Burlingame, CA) and then visualized by applying the Vector Blue Alkaline Phosphatase Substrate Kit III (Vector Laboratories, Burlingame, CA) according to the manufacturer’s instructions. Spots corresponding to the HRP-conjugated anti-human IFNγ Ab were visualized by incubation with 3-amino-9-ethylcarvazole solution (Sigma-Aldrich, St. Louis, MO). Spots were counted by computer-assisted image analysis (KS-ELISPOT reader, Zeiss, Munich). Each assay was performed in triplicate. The level of statistical significance was determined with a Student t test using the mean of triplicate values of the response against relevant pools or individual peptides versus the response against the DMSO control. Criteria for response positivity were 20 spot-forming cells (SFCs)/10^6 PBMC, p ≤ 0.05, and a stimulation index (SI) ≥ 2. SFCs are measured per 10^5 PBMC, subsequently readings are background subtracted and multiplied by 10 to be expressed as SFC per million PBMC. T cell epitope mapping was performed to determine epitopes from the major peanut allergens Ara h 1, 2 and 3, recognized by peanut allergic (n = 11) and non-allergic (n = 10) donors. As these studies were performed with samples obtained from pediatric patients, available blood sample volumes were limiting. To overcome this limitation, small pools of predicted peptides matched to the HLA molecules expressed in each donor were tested. For each donor, class II binding affinity predictions were performed using algorithms available through the IEDB (www.iedb.org)[18], to identify the top 6 predicted binders for each of the alleles expressed at the four HLA class II loci (DRB1, DRB3/4/5, DQB1, and DPB1). Accordingly, the screening load for each donor was reduced from 400 peptides to a maximum of 48 peptides (6 peptides x ≤8 class II molecules, less for homozygous donors). The six top predicted peptides for each allele were used to generate allele-specific pools, which were in turn used to expand peanut-specific cells in vitro. […]

[2] = test system: PBMC from peanut allergic and non-allergic donors (IFNγ production); assay: IFNγ ELISPOT with individual peptides after 14-day in vitro expansion (epitope mapping); type: cell-based, human; settings: SFC per 10^6 PBMC, individual peptide 10 μg/ml, 24 h, after 14-day culture; for IFNg Average SFC (allergics): allergic donors; for IFNg Average SFC (controls): non-allergic controls
Protocol: as §1

| Sequence | IL-5 Average SFC (allergics) [1] | IL-5 Average SFC (controls) [1] | IFNg Average SFC (allergics) [2] | IFNg Average SFC (controls) [2] |
| --- | --- | --- | --- | --- |
| LQDLDMMLTCVEIKE [Ara h 1 15-mer, position 426] | 0 SFC | 403 SFC | 0 SFC | 158 SFC |
| RSSENNEGVIVEVSK [Ara h 1 15-mer, position 356] | – | 40 SFC | – | 0 SFC |
| RCTKLEYDPRCVYDT [Ara h 1 15-mer, position 61] | 195 SFC | 467 SFC | 0 SFC | 820 SFC |
| SPLMLLLGILVLASV [Ara h 1 15-mer, position 6] | 0 SFC | 30 SFC | 0 SFC | 0 SFC |
| NNRKSFNLDEGHALR [Ara h 1 15-mer, position 251] | – | 82 SFC | – | 55 SFC |
| SNREVRRYTARLKEG [Ara h 1 15-mer, position 493] | 20 SFC | 527 SFC | 42 SFC | 108 SFC |
| PHFNSKAMVIVVINK [Ara h 1 15-mer, position 446] | 41 SFC | 0 SFC | 15 SFC | 58 SFC |
| EYVAFKTDSRPSIAN [Ara h 3 15-mer, position 471; P19 pool member] | 651 SFC | 225 SFC | 27 SFC | 539 SFC |
| QGRGYFGLIFPGCPS [Ara h 3 15-mer, position 96] | 0 SFC | 43 SFC | 0 SFC | 0 SFC |
| EQGAIVTVRGGLRIL [Ara h 3 15-mer, position 296] | 78 SFC | 205 SFC | 142 SFC | 252 SFC |
| RNNPFYFPSRRFSTR [Ara h 1 15-mer, position 171] | 100 SFC | – | 0 SFC | – |
| GHALRIPSGFISYIL [Ara h 1 15-mer, position 261] | 0 SFC | 1080 SFC | 0 SFC | 0 SFC |
| VTVRGGLRILSPDRK [Ara h 3 15-mer, position 301] | 196 SFC | 44 SFC | 19 SFC | 93 SFC |
| SRTVLRRNALRRPFY [Ara h 3 15-mer, position 71] | – | 647 SFC | – | 377 SFC |
| AGVALSRLVLRRNAL [Ara h 3 15-mer, position 66] | – | 753 SFC | – | 603 SFC |
| FQNLQNHRIVQIEAR [Ara h 1 15-mer, position 206] | 64 SFC | 0 SFC | 13 SFC | 0 SFC |
| SNAPQEIFIQQGRGY [Ara h 3 15-mer, position 86] | – | 45 SFC | – | 0 SFC |
| SGFAQEFLQHAFQVD [Ara h 3 15-mer, position 242] | 124 SFC | 97 SFC | 0 SFC | 88 SFC |
| MAKLLALSLCFCVLV [Ara h 3 15-mer, position 1] | 0 SFC | 25 SFC | 0 SFC | 9 SFC |
| GLRILSPDEEDESSR [Ara h 3 15-mer, position 281] | – | 403 SFC | – | 293 SFC |
| SGFTPEFLAQAFQVD [Ara h 3 15-mer, position 266; P19 pool member] | 394 SFC | 240 SFC | 0 SFC | 81 SFC |
| LLGILVLASVSATHA [Ara h 1 15-mer, position 11] | – | 0 SFC | – | 80 SFC |
| LLGILVLASVSATQA [Ara h 1 15-mer, position 11] | – | 0 SFC | – | 145 SFC |
| DVFIMPAAHPVAINA [Ara h 1 15-mer, position 508] | – | 34 SFC | – | 0 SFC |
| RRFYLAGNQEQEFLR [Ara h 3 15-mer, position 196] | 0 SFC | 750 SFC | 0 SFC | 90 SFC |
| SRLVLRRNALRRPFY [Ara h 3 15-mer, position 71; P19 pool member] | 27 SFC | 941 SFC | 19 SFC | 341 SFC |
| HVQVVDSNGNRVYDE [Ara h 3 15-mer, position 406; P19 pool member] | 385 SFC | 0 SFC | 0 SFC | 240 SFC |
| QEFLRYQQQQGSRPH [Ara h 3 15-mer, position 206] | 0 SFC | 144 SFC | 13 SFC | 61 SFC |
| RLKEGDVFIMPAAHP [Ara h 1 15-mer, position 503] | – | 120 SFC | – | 83 SFC |
| NELNLLILRWLGLSA [Ara h 3 15-mer, position 386] | 0 SFC | 607 SFC | 0 SFC | 0 SFC |
